This passage reports IC50 results from US11236069B2, “KIF18A inhibitors” (AMGEN INC., priority 2018, dated 2022).

The target of the assay is Recombinant human KIF18A (1-467 His-tagged) protein (Homo sapiens (Human), UniProt Q8NI77). Briefly: KIF18A Enzyme Assay: microtubule-stimulated ATPase activity (ADP-Glo). Conditions: read-out: KIF18A ATPase IC50; 30 nM KIF18A, 30 μg/mL pig microtubules, ATP at Km 75 μM, ADP-Glo luminescence.
Sequence of Recombinant human KIF18A (1-467 His-tagged) protein (Q8NI77 1-467): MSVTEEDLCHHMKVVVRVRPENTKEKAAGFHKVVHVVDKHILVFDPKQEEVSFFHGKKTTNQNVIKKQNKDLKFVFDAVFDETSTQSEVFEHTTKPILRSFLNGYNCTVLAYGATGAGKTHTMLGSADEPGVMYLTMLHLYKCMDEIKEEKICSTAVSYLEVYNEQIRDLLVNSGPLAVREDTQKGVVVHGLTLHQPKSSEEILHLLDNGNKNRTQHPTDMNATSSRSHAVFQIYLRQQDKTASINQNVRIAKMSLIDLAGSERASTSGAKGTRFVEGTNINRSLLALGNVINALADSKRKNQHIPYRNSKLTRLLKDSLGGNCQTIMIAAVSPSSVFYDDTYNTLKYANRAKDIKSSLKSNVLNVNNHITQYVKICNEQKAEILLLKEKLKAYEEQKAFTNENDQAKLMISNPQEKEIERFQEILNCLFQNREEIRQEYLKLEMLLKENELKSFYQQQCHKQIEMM
Sequence of Recombinant human KIF18A (1-467 His-tagged) protein (P02550 whole entry partner): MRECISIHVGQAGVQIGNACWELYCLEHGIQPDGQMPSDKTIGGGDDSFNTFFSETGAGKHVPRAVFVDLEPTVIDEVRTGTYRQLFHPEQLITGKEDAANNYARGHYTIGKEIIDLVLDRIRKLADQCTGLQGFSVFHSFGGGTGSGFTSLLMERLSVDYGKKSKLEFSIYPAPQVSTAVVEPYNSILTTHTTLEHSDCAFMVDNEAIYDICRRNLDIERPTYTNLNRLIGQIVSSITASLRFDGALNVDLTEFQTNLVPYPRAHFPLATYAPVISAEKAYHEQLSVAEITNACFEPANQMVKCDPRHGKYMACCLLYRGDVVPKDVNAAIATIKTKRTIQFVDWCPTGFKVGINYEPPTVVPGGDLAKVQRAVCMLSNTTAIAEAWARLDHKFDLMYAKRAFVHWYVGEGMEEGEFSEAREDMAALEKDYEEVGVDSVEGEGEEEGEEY
Sequence of Recombinant human KIF18A (1-467 His-tagged) protein (P02554 whole entry partner): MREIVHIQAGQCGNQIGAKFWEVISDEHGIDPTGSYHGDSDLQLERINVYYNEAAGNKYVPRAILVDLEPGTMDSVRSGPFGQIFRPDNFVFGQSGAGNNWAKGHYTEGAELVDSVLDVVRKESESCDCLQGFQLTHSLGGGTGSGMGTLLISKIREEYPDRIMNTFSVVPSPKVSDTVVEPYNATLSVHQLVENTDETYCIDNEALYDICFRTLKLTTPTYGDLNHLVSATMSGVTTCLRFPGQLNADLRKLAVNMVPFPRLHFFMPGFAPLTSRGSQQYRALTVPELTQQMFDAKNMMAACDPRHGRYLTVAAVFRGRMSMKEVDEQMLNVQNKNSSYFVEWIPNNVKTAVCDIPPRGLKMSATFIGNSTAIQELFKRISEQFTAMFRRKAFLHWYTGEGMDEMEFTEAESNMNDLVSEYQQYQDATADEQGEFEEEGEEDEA
Description: KIF18A Enzyme Assay: Microtubule-stimulated ATPase activity assay is used to measure KIF18A enzyme activity after treatment with compound. Compounds were 2-fold serially diluted in DMSO (Sigma Inc) over 22-point concentration range. […] The assay measures ADP formed from the ATPase reaction.
In the case of `Cc1cc(NC(=O)c2ccc(NS(=O)(=O)C3COC3)cc2N2CCC3(CC2)CC3)nc(N2CC(F)(F)C2)n1` [Example 11-23, N-(2-(3,3-Difluoroazetidin-1-yl)-6-methylpyrimidin-4-yl)-4-(oxetane-3-sulfonamido)-2-(6-azaspiro[2.5]octan-6-yl)benzamide], the IC50 was found to be 48.9 nM. The result for `Cc1cc(NC(=O)c2ccc(NS(=O)(=O)CCO)cc2N2CCC3(CC2)CC3)nc(N2CC(OC(F)F)C2)n1` [Example 11-10, N-(2-(3-(Difluoromethoxy)azetidin-1-yl)-6-methylpyrimidin-4-yl)-4-((2-hydroxyethyl)sulfonamido)-2-(6-azaspiro[2.5]octan-6-yl)benzamide] reads 192 nM. Regarding `O=C(Nc1ccnc(N2CCC(F)CC2)n1)c1ccc(NS(=O)(=O)CCO)cc1N1CCC2(CC1)CC2` [Example 11-56, N-(2-(4-Fluoropiperidin-1-yl)pyrimidin-4-yl)-4-((2-hydroxyethyl)sulfonamido)-2-(6-azaspiro[2.5]octan-6-yl)benzamide], the IC50 was 22 nM. The value for `Cc1cc(NC(=O)c2ccc(NS(=O)(=O)CCO)cc2N2CCC3(CC2)CC3)nc(N2CCC[C@@H]3C[C@@H]32)n1` [Example 11-44, N-(2-((1S,6R)-2-Azabicyclo[4.1.0]heptan-2-yl)-6-methylpyrimidin-4-yl)-4-((2-hydroxyethyl)sulfonamido)-2-(6-azaspiro[2.5]octan-6-yl)benzamide] was 33 nM. The value for `Cc1cc(NC(=O)c2ccc(NS(=O)(=O)C3([C@@H](C)O)CC3)cc2N2CCC3(CC2)CC3)nc(N2CCC(F)(F)CC2)n1` [Example 6-31-1, (R)-N-(2-(4,4-Difluoropiperidin-1-yl)-6-methylpyrimidin-4-yl)-4-((1-(1-hydroxyethyl)cyclopropane)-1-sulfonamido)-2-(6-azaspiro[2.5]octan-6-yl)benzamide] was 324 nM; that for `Cc1cc(NC(=O)c2ccc(NS(=O)(=O)CCCO)cc2N2CCC3(CC2)CC3)nc(N2CCC(F)(F)CC2)n1` [Example 6-15, N-(2-(4,4-Difluoropiperidin-1-yl)-6-methylpyrimidin-4-yl)-4-((3-hydroxypropyl)sulfonamido)-2-(6-azaspiro[2.5]octan-6-yl)benzamide] was 86 nM. The result for `Cc1cc(NC(=O)c2ccc(NS(=O)(=O)CC3CC3)cc2N2CCC3(CC2)CC3)nc(N2CCC(F)(F)CC2)n1` [Example 6-18, 4-((Cyclopropylmethyl)sulfon-amido)-N-(2-(4,4-difluoropiperidin-1-yl)-6-methylpyrimidin-4-yl)-2-(6-azaspiro[2.5]octan-6-yl)benzamide] reads 85 nM; that for `Cc1cc(NC(=O)c2ccc(NS(=O)(=O)C3CCC3)cc2N2CCC3(CC2)CC3)nc(N2CCC(F)(F)CC2)n1` [Example 6-11, 4-(Cyclobutanesulfonamido)-N-(2-(4,4-difluoropiperidin-1-yl)-6-methylpyrimidin-4-yl)-2-(6-azaspiro[2.5]octan-6-yl)benzamide], 127 nM; that for `Cc1cc(NC(=O)c2ccc(NS(=O)(=O)CCO)cc2N2CCC3(CC2)CC3)nc(N2CCC23COC3)n1` [Example 11-9, 4-((2-Hydroxyethyl)sulfonamido)-N-(6-methyl-2-(6-oxa-1-azaspiro[3.3]heptan-1-yl)pyrimidin-4-yl)-2-(6-azaspiro[2.5]octan-6-yl)benzamide], 128 nM. Regarding `Cc1cc(NC(=O)c2ccc(NS(=O)(=O)CCO)cc2N2CCC3(CC2)CC3)nc(N2CCCC(F)(F)C2)n1` [Example 11-39, N-(2-(3,3-Difluoropiperidin-1-yl)-6-methylpyrimidin-4-yl)-4-((2-hydroxyethyl)sulfonamido)-2-(6-azaspiro[2.5]octan-6-yl)benzamide], the IC50 was determined as 45 nM. The value for `Cc1cc(NC(=O)c2ccc(S(=O)(=O)CC(C)(C)O)cc2N2CCC3(CC2)CC3)nc(N2CCC(F)(F)CC2)n1` [Example 14-4, N-(2-(4,4-Difluoropiperidin-1-yl)-6-methylpyrimidin-4-yl)-4-((2-hydroxy-2-methylpropyl)sulfonyl)-2-(6-azaspiro[2.5]octan-6-yl)benzamide] was 806 nM; that for `C[C@H]1CN(c2nccc(NC(=O)c3ccc(NS(=O)(=O)CCO)cc3N3CCC4(CC3)CC4)n2)CCO1` [Example 11-1, (S)-4-((2-Hydroxyethyl)sulfonamido)-N-(2-(2-methylmorpholino)pyrimidin-4-yl)-2-(6-azaspiro[2.5]octan-6-yl)benzamide] was 37 nM. The value for `Cc1cc(NC(=O)c2ccc(NS(=O)(=O)CCO)cc2N2CCC3(CC2)CC3)nc(N2CC3C[C@]3(O)C2)n1` (stereo partly drawn) [Example 11-32, N-(2-((1R)-1-Hydroxy-3-azabicyclo[3.1.0]hexan-3-yl)-6-methylpyrimidin-4-yl)-4-((2-hydroxyethyl)sulfonamido)-2-(6-azaspiro[2.5]octan-6-yl)benzamide] was 193 nM. The value for `Cc1cc(NC(=O)c2ccc(NS(=O)(=O)CCO)cc2N2CCC3(CC2)CC3)c(F)c(N2CCC(F)(F)CC2)n1` [Example 11-64, N-(2-(4,4-Difluoropiperidin-1-yl)-3-fluoro-6-methylpyridin-4-yl)-4-((2-hydroxyethyl)sulfonamido)-2-(6-azaspiro[2.5]octan-6-yl)benzamide] was 54 nM.

Consider `Cc1cc(NC(=O)c2ccc(NS(=O)(=O)CCO)cc2N2CCC3(CC2)CC3)nc(C(C)C)n1` [Example 11-2, 4-((2-Hydroxyethyl)sulfonamido)-N-(2-isopropyl-6-methylpyrimidin-4-yl)-2-(6-azaspiro[2.5]octan-6-yl)benzamide], for which the concentration for half-maximal inhibition (IC50) is 27 nM. The result for `Cc1cc(NC(=O)c2ccc(NS(=O)(=O)C[C@H](C)O)cc2N2CCC3(CC2)CC3)nc(N2CC(F)(F)C2)n1` (single isomer, unassigned) [Example 10-2] reads 73 nM; that for `CCS(=O)(=O)c1ccc(C(=O)Nc2cc(C)nc(N3CCC(F)(F)CC3)n2)c(N2CCC3(CC2)CC3)c1` [Example 14-2, N-(2-(4,4-Difluoropiperidin-1-yl)-6-methylpyrimidin-4-yl)-4-(ethylsulfonyl)-2-(6-azaspiro[2.5]octan-6-yl)benzamide], 108 nM. The value for `Cc1cc(NC(=O)c2ccc(NS(=O)(=O)CCO)cc2N2CCC3(CC2)CC3)nc(N2CC(C(C)(C)O)C2)n1` [Example 11-14, 4-((2-Hydroxyethyl)sulfonamido)-N-(2-(3-(2-hydroxypropan-2-yl)azetidin-1-yl)-6-methylpyrimidin-4-yl)-2-(6-azaspiro[2.5]octan-6-yl)benzamide] was 172 nM; that for `Cc1cc(NC(=O)c2ccc(S(=O)(=O)[C@@H]3CCC[C@H]3O)cc2N2CCC3(CC2)CC3)nc(N2CCC(F)(F)CC2)n1` [Example 14-9, N-(2-(4,4-Difluoropiperidin-1-yl)-6-methylpyrimidin-4-yl)-4-(((1R,2R)-2-hydroxycyclopentyl)sulfonyl)-2-(6-azaspiro[2.5]octan-6-yl)benzamide] was 195 nM; that for `Cc1cc(NC(=O)c2ccc(S(C)(=O)=O)cc2N2CCC3(CC2)CC3)nc(N2CCC(F)(F)CC2)n1` [Example 2-6, N-(2-(4,4-Difluoropiperidin-1-yl)-6-methylpyrimidin-4-yl)-4-(methylsulfonyl)-2-(6-azaspiro[2.5]octan-6-yl)benzamide] was 260 nM.
